In patent publication US10159640B2, “Prebiotic oral care compositions containing amino acids” (COLGATE-PALMOLIVE COMPANY, priority 2013, dated 2018):

Columns and labels:
Test in all cases: Extent of growth, growth curves in BHI
Type in all cases: cell-based
Conditions in all cases: control = 1
Streptococcus mutans = system: Streptococcus mutans
Procedure: (§1) The extent of growth of the tested bacteria in response to selected compounds (Met-Pro, Phe-Glu) was investigated by setting up growth curves in a nutritionally rich medium (brain heart infusion broth (BHI), Oxoid), over 48 hours. Late exponential growth phase liquid cultures were prepared by transferring the respective bacterium from blood agar plates to BHI and overnight incubation at 37° C. in an anaerobic atmosphere for A. viscosus, V. parvula, F. nucleatum, P. gingivalis, P. intermedia, T. forsythia, A. naeslundii, and C. sputigena, and in a 5% CO2 environment for S. salivarius, S. sanguinis, S. mitis, A. actinomycetemcomitans, S. mutans, S. sobrinus and S. gordonii. Overnight cultures were transferred to BHI and adjusted to a concentration of 1×10^7 CFU/ml (colony forming units per ml) by measuring the optical density at 600 nm (OD600) (BioRad SmartSpec 3000). For each strain, 200 μl of the bacterial suspension was added to a 96-well plate containing 20 μl of the respective di-peptides. Final concentrations of the di-peptides were set to 5, 10, 20 and 25 μmol/ml. […] Plates were incubated as previously described.
(§2) For each combination of bacterium/dipeptide, and for each of their respective controls (i.e. the particular bacterium in the nutritionally rich medium with no dipeptide), the optical density was measured at 630 nm (OD630) at 0 h, 24 h and 48 h (Thermo Scientific Multiskan Ascent). Additionally, the OD630 for combinations of bacterium/dipeptide grown in a 5% CO2 environment were also measured every hour between 0 h and 9 h.
(§3) The experiment was carried out on three different days (thus providing 3 biological replicas) and on each day the experiment was carried out in quadruple (thus providing 4 technical replicas) for each combination of bacterium with dipeptide and for each control. For each day and for each combination, the average (mean) of the values obtained (as detailed above) for the four technical replicas was calculated to provide a single value for each combination on each day. The values shown in Tables 5 to 6, below, are the average (mean) of the three single values obtained for each combination of bacterium with dipeptide.

Streptococcus sobrinus = system: Streptococcus sobrinus
Procedure: as §1, §2, §3

Actinomyces naeslundii = system: Actinomyces naeslundii
Procedure: as §1, §2, §3

Capnocytophaga sputigena = system: Capnocytophaga sputigena
Procedure: as §1, §2, §3

Porphyromonas gingivalis = system: Porphyromonas gingivalis
Procedure: as §1, §2, §3

Tannerella forsythia = system: Tannerella forsythia
Procedure: as §1, §2, §3

Veillonella parvula = system: Veillonella parvula
Procedure: as §1, §2, §3

Prevotella intermedia = system: Prevotella intermedia
Procedure: as §1, §2, §3

[1] = system: Aggregatibacter actinomycetemcomitans
Procedure: as §1, §2, §3

Streptococcus sanguinis = system: Streptococcus sanguinis
Procedure: as §1, §2, §3

Streptococcus mitis = system: Streptococcus mitis
Procedure: as §1, §2, §3

Actinomyces viscosus = system: Actinomyces viscosus
Procedure: as §1, §2, §3

Fusobacterium nucleatum = system: Fusobacterium nucleatum
Procedure: as §1, §2, §3

Streptococcus salivarius = system: Streptococcus salivarius
Procedure: as §1, §2, §3

Streptococcus gordonii = system: Streptococcus gordonii
Procedure: as §1, §2, §3

Phe-Glu
extent of growth: maximal OD630 over 48 hr divided by maximal OD of control (Streptococcus mutans; 5 μmol/ml): 0.9703 | extent of growth: maximal OD630 over 48 hr divided by maximal OD of control (Streptococcus mutans; 10 μmol/ml): 0.9003 | extent of growth: maximal OD630 over 48 hr divided by maximal OD of control (Streptococcus mutans; 20 μmol/ml): 0.4212 | extent of growth: maximal OD630 over 48 hr divided by maximal OD of control (Streptococcus mutans; 25 μmol/ml): 0.2492 | extent of growth: maximal OD630 over 48 hr divided by maximal OD of control (Streptococcus sobrinus; 5 μmol/ml): 1.0790 | extent of growth: maximal OD630 over 48 hr divided by maximal OD of control (Streptococcus sobrinus; 10 μmol/ml): 0.9900 | extent of growth: maximal OD630 over 48 hr divided by maximal OD of control (Streptococcus sobrinus; 20 μmol/ml): 0.5832 | extent of growth: maximal OD630 over 48 hr divided by maximal OD of control (Streptococcus sobrinus; 25 μmol/ml): 0.4315 | extent of growth: maximal OD630 over 48 hr divided by maximal OD of control (Actinomyces naeslundii; 5 μmol/ml): 0.7791 | extent of growth: maximal OD630 over 48 hr divided by maximal OD of control (Actinomyces naeslundii; 10 μmol/ml): 0.4962 | extent of growth: maximal OD630 over 48 hr divided by maximal OD of control (Actinomyces naeslundii; 20 μmol/ml): 0.1648 | extent of growth: maximal OD630 over 48 hr divided by maximal OD of control (Actinomyces naeslundii; 25 μmol/ml): 0.1653 | extent of growth: maximal OD630 over 48 hr divided by maximal OD of control (Capnocytophaga sputigena; 5 μmol/ml): 0.9921 | extent of growth: maximal OD630 over 48 hr divided by maximal OD of control (Capnocytophaga sputigena; 10 μmol/ml): 0.9872 | extent of growth: maximal OD630 over 48 hr divided by maximal OD of control (Capnocytophaga sputigena; 20 μmol/ml): 1.0801 | extent of growth: maximal OD630 over 48 hr divided by maximal OD of control (Capnocytophaga sputigena; 25 μmol/ml): 1.1804 | extent of growth: maximal OD630 over 48 hr divided by maximal OD of control (Porphyromonas gingivalis; 5 μmol/ml): 0.8526 | extent of growth: maximal OD630 over 48 hr divided by maximal OD of control (Porphyromonas gingivalis; 10 μmol/ml): 0.9810 | extent of growth: maximal OD630 over 48 hr divided by maximal OD of control (Porphyromonas gingivalis; 20 μmol/ml): 0.4181 | extent of growth: maximal OD630 over 48 hr divided by maximal OD of control (Porphyromonas gingivalis; 25 μmol/ml): 0.4208 | extent of growth: maximal OD630 over 48 hr divided by maximal OD of control (Tannerella forsythia; 5 μmol/ml): 1.0118 | extent of growth: maximal OD630 over 48 hr divided by maximal OD of control (Tannerella forsythia; 10 μmol/ml): 0.7490 | extent of growth: maximal OD630 over 48 hr divided by maximal OD of control (Tannerella forsythia; 20 μmol/ml): 0.7707 | extent of growth: maximal OD630 over 48 hr divided by maximal OD of control (Tannerella forsythia; 25 μmol/ml): 0.8302 | extent of growth: maximal OD630 over 48 hr divided by maximal OD of control (Veillonella parvula; 5 μmol/ml): 1.0286 | extent of growth: maximal OD630 over 48 hr divided by maximal OD of control (Veillonella parvula; 10 μmol/ml): 1.0199 | extent of growth: maximal OD630 over 48 hr divided by maximal OD of control (Veillonella parvula; 20 μmol/ml): 0.9533 | extent of growth: maximal OD630 over 48 hr divided by maximal OD of control (Veillonella parvula; 25 μmol/ml): 1.0475 | extent of growth: maximal OD630 over 48 hr divided by maximal OD of control (Prevotella intermedia; 5 μmol/ml): 1.1149 | extent of growth: maximal OD630 over 48 hr divided by maximal OD of control (Prevotella intermedia; 10 μmol/ml): 0.2856 | extent of growth: maximal OD630 over 48 hr divided by maximal OD of control (Prevotella intermedia; 20 μmol/ml): 0.2094 | extent of growth: maximal OD630 over 48 hr divided by maximal OD of control (Prevotella intermedia; 25 μmol/ml): 0.2224 | extent of growth: maximal OD630 over 48 hr divided by maximal OD of control ([1]; 5 μmol/ml): 0.5643 | extent of growth: maximal OD630 over 48 hr divided by maximal OD of control ([1]; 10 μmol/ml): 0.3227 | extent of growth: maximal OD630 over 48 hr divided by maximal OD of control ([1]; 20 μmol/ml): 0.2201 | extent of growth: maximal OD630 over 48 hr divided by maximal OD of control ([1]; 25 μmol/ml): 0.2320 | extent of growth: maximal OD630 over 48 hr divided by maximal OD of control (Streptococcus sanguinis; 5 μmol/ml): 0.8140 | extent of growth: maximal OD630 over 48 hr divided by maximal OD of control (Streptococcus sanguinis; 10 μmol/ml): 0.5644 | extent of growth: maximal OD630 over 48 hr divided by maximal OD of control (Streptococcus sanguinis; 20 μmol/ml): 0.2451 | extent of growth: maximal OD630 over 48 hr divided by maximal OD of control (Streptococcus sanguinis; 25 μmol/ml): 0.2334 | extent of growth: maximal OD630 over 48 hr divided by maximal OD of control (Streptococcus mitis; 5 μmol/ml): 1.9957 | extent of growth: maximal OD630 over 48 hr divided by maximal OD of control (Streptococcus mitis; 10 μmol/ml): 2.0642 | extent of growth: maximal OD630 over 48 hr divided by maximal OD of control (Streptococcus mitis; 20 μmol/ml): 0.3250 | extent of growth: maximal OD630 over 48 hr divided by maximal OD of control (Streptococcus mitis; 25 μmol/ml): 0.4367 | extent of growth: maximal OD630 over 48 hr divided by maximal OD of control (Actinomyces viscosus; 5 μmol/ml): 0.5112 | extent of growth: maximal OD630 over 48 hr divided by maximal OD of control (Actinomyces viscosus; 10 μmol/ml): 0.3845 | extent of growth: maximal OD630 over 48 hr divided by maximal OD of control (Actinomyces viscosus; 20 μmol/ml): 0.1598 | extent of growth: maximal OD630 over 48 hr divided by maximal OD of control (Actinomyces viscosus; 25 μmol/ml): 0.1563 | extent of growth: maximal OD630 over 48 hr divided by maximal OD of control (Fusobacterium nucleatum; 5 μmol/ml): 0.7990 | extent of growth: maximal OD630 over 48 hr divided by maximal OD of control (Fusobacterium nucleatum; 10 μmol/ml): 0.8493 | extent of growth: maximal OD630 over 48 hr divided by maximal OD of control (Fusobacterium nucleatum; 20 μmol/ml): 0.2311 | extent of growth: maximal OD630 over 48 hr divided by maximal OD of control (Fusobacterium nucleatum; 25 μmol/ml): 0.2402 | extent of growth: maximal OD630 over 48 hr divided by maximal OD of control (Streptococcus salivarius; 5 μmol/ml): 0.9916 | extent of growth: maximal OD630 over 48 hr divided by maximal OD of control (Streptococcus salivarius; 10 μmol/ml): 0.8123 | extent of growth: maximal OD630 over 48 hr divided by maximal OD of control (Streptococcus salivarius; 20 μmol/ml): 0.2953 | extent of growth: maximal OD630 over 48 hr divided by maximal OD of control (Streptococcus salivarius; 25 μmol/ml): 0.2322 | extent of growth: maximal OD630 over 48 hr divided by maximal OD of control (Streptococcus gordonii; 5 μmol/ml): 0.9682 | extent of growth: maximal OD630 over 48 hr divided by maximal OD of control (Streptococcus gordonii; 10 μmol/ml): 0.8613 | extent of growth: maximal OD630 over 48 hr divided by maximal OD of control (Streptococcus gordonii; 20 μmol/ml): 0.3992 | extent of growth: maximal OD630 over 48 hr divided by maximal OD of control (Streptococcus gordonii; 25 μmol/ml): 0.2908
